Measured values reported in patent publication US20230147257A1 (DONG-A ST CO., LTD., priority 2020, published 2023).
Where a name gives a salt, the structure may show the parent alone. Read-outs that look alike come from different tables or passages of the source.

Legend:
AhR [1] = biological target: T1, AhR (Homo sapiens, UniProt P35869); test: In vitro assay 1: XRE-luciferase reporter assay, antagonism in human cell line (HepG2); assay type: cell-based; details: HepG2 XRE-luciferase, 6 hours, read-out: Assay 1: AhR-Luc Human Antagonism (IC50)
T1 construct: host or cells: HepG2
T1 sequence (P35869 11-848): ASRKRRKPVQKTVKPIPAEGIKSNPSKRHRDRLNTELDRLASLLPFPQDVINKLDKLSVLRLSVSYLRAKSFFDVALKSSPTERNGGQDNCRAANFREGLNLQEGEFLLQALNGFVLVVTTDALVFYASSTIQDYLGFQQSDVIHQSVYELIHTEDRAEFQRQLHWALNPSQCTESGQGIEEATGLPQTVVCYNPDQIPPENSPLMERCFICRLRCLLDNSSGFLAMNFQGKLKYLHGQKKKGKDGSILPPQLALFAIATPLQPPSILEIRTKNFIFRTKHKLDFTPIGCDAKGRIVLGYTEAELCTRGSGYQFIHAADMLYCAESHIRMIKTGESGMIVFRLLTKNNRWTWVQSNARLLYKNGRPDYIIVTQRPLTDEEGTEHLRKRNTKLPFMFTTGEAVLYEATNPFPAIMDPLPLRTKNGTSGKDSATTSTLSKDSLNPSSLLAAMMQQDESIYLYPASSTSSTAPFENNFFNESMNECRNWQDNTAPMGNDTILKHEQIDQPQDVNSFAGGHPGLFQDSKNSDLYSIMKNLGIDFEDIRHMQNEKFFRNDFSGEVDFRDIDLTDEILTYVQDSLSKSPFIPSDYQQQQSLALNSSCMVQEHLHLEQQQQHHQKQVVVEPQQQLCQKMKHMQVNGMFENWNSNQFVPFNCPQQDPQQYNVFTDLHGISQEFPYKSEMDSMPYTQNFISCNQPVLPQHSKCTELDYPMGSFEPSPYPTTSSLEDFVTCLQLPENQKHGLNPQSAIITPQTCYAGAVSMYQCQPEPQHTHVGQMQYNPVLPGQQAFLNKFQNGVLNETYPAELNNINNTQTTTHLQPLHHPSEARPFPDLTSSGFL
Excerpt: (§1) In Vitro XRE-Luciferase Reporter Assay (In Vitro Assay 1, 2, 3)
(§2) AhR activation leads the induction of target gene expression such as CYP1A1 and CYP1B1 by AhR binding to AhR-responsive DNA elements also known as xenobiotics responsive elements (XRE). The assay for measuring AhR activity herein is the luciferase assay using cell lines transfected with luciferase reporter plasmid containing XREs at the upstream of the reporter gene. Cells transfected with XRE-luciferase reporter (XRE-Luc) plasmid drive luciferase activity reflecting activation and inhibition of AhR in the cells. In addition to transfection with XRE-reporter vector, cells were co-transfected with Nano-luciferase reporter gene construct (Nano-Luc) containing constitutively active promoter as internal control. Kynurenine (an endogenous AhR agonist) was used to stimulate cells to test antagonistic properties of the compounds. The half-maximal inhibitory concentration (IC50) or half-maximal effective concentration (EC50) value was calculated using nonlinear regression (four parameters) with Prism8.0 software (GraphPad).
In Vitro Assay 1: Antagonism in Human Cell Line
HepG2 (human hepatoma cell line) cell line with a XRE-luciferase reporter either transiently or stably (Invivogen) were plated in complete medium and incubated at 37° C. in a CO2 incubator. After 24 hours, cells were treated with kynurenine (50* or 200 μM) alone (negative control) or with test compounds for 6 hours. Luciferase activity was measured with a commercial kit such as the Promega Luciferase kit or other reagents for measuring luciferase activity. Relative luciferase activity (Firefly/Nano-Luc) was used to calculate IC50 values. The relative luciferase activity was further normalized with kynurenine alone group as the maximum control and the vehicle group as the minimum control. (IC50 values are grouped as A, B, C and D, whereby A: IC50<0.01 μM; B: 0.01<IC50<0.1 μM; C: 0.1<IC50<1.0 μM; D: IC50>1.0 μM)

AhR [2] = biological target: T1, AhR; test: In vitro assay 3: XRE-luciferase reporter assay, agonism in human cell line (HepG2); assay type: cell-based; details: HepG2 XRE-Luc, tryptophan free medium, test compound alone, 6 hours
Excerpt: as §1, §2
In Vitro Assay 3: Agonism in Human Cell Line
HepG2 (human hepatoma cell line) cells co-transfected with XRE-Luc and Nano-Luc plasmids were plated in tryptophan free medium containing 1% of dialyzed fetal bovine serum and incubated overnight at 37° C. in a CO2 incubator. After 24 hours, cells were treated for 6 hours with test compounds or not. Firefly luciferase and Nano-luciferase activity was measured using Nano-glo Luciferase kit (Promega) and relative luciferase activity (Firefly/Nano-Luc) was used to calculate EC50 values. As a positive control, cells were incubated with TCDD. (EC50 Values are grouped as A, B, C and D, whereby A: EC50<0.1 μM; B: 0.1<EC50<1.0 μM; C: 1.0<EC50<10 μM; D: EC50>10 μM)

[3] = cells treated with kynurenine 50 μM (*)
[4] = read-out: Assay 3: AhR-Luc Human Agonism (EC50)
[5] = read-out: Assay 3: AhR-Luc Human Agonism (EC50, nM), class in brackets
[6] = cells treated with kynurenine 200 μM (no *)

| Compound | IC50 (AhR [1]; [3]) [nM] | EC50 (AhR [2]; [4]) [nM] | EC50 (AhR [2]; [5]) [nM] | IC50 (AhR [1]; [6]) [nM] |
| --- | --- | --- | --- | --- |
| Cn1cc(-c2nc(-c3ccc(C(F)(F)F)cc3)cc3c(=O)n(C4CCCC(O)C4)cnc23)cn1 (stereo not shown) [Example 1, 3-(3-hydroxycyclohexyl)-8-(1-methyl-1H-pyrazol-4-yl)-6-(4-(trifluoromethyl)phenyl)pyrido[3,4-d]pyrimidin-4(3H)-one] | < 10 | > 30000 | > 10000 | – |
| CC(CO)n1cnc2c(-c3cnn(C)c3)nc(-c3cnn(C)c3)cc2c1=O (stereo not shown) [Example 3, 3-(1-hydroxypropan-2-yl)-6,8-bis(1-methyl-1H-pyrazol-4-yl)pyrido[3,4-d]pyrimidin-4(3H)-one] | > 1000 | > 30000 | > 10000 | – |
| Cn1cc(-c2nc(-c3ccc(C(F)(F)F)cc3)cc3c(=O)n([C@H]4CC[C@H](O)CC4)cnc23)cn1 [Example 8, 3-((1r,4r)-4-hydroxycyclohexyl)-8-(1-methyl-1H-pyrazol-4-yl)-6-(4-(trifluoromethyl)phenyl)pyrido[3,4-d]pyrimidin-4(3H)-one] | < 10 | > 30000 | > 10000 | – |
| Cn1cc(-c2nc(-c3ccc(Cl)cc3)cc3c(=O)n([C@H]4CC[C@H](O)CC4)cnc23)cn1 [Example 10, 6-(4-chlorophenyl)-3-((1r,4r)-4-hydroxycyclohexyl)-8-(1-methyl-1H-pyrazol-4-yl)pyrido[3,4-d]pyrimidin-4(3H)-one] | < 10 | > 30000 | > 10000 | – |
| CC(O)Cn1cnc2c(-c3cnn(C)c3)nc(-c3ccc(C(F)(F)F)nc3)cc2c1=O (stereo not shown) [Example 14, 3-(2-hydroxypropyl)-8-(1-methyl-1H-pyrazol-4-yl)-6-(6-(trifluoromethyl)pyridin-3-yl)pyrido[3,4-d]pyrimidin-4(3H)-one] | < 10 | > 30000 | > 10000 | – |
| CC(CO)n1cnc2c(-c3cnn(C)c3)nc(-c3ccc(Cl)cc3)cc2c1=O (stereo not shown) [Example 48, 6-(4-chlorophenyl)-3-(1-hydroxypropan-2-yl)-8-(1-methyl-1H-pyrazol-4-yl)pyrido[3,4-d]pyrimidin-4(3H)-one] | < 10 | > 30000 | > 10000 | – |
| CS(=O)(=O)CCn1cnc2c(-c3cccnc3)nc(-c3ccc(N4CCOCC4)cc3)cc2c1=O [Example 79, 3-(2-(methylsulfonyl)ethyl)-6-(4-morpholinophenyl)-8-(pyridin-3-yl)pyrido[3,4-d]pyrimidin-4(3H)-one] | – | – | – | < 10 |
| O=c1c2cc(-c3ccc(N4CCOCC4)cc3)nc(-c3cccnc3)c2ncn1C(CO)CO [Example 80, 3-(1,3-dihydroxypropan-2-yl)-6-(4-morpholinophenyl)-8-(pyridin-3-yl)pyrido[3,4-d]pyrimidin-4(3H)-one] | – | – | – | < 10 |
| CC(CN)n1cnc2c(-c3cccnc3)nc(-c3ccc(N4CCOCC4)cc3)cc2c1=O (stereo not shown) [Example 90, 3-(1-aminopropan-2-yl)-6-(4-morpholinophenyl)-8-(pyridin-3-yl)pyrido[3,4-d]pyrimidin-4(3H)-one] | – | – | – | 100 to 1000 |
| CC(CNS(C)(=O)=O)n1cnc2c(-c3cccnc3)nc(-c3ccc(N4CCOCC4)cc3)cc2c1=O (stereo not shown) [Example 91, N-(2-(6-(4-morpholinophenyl)-4-oxo-8-(pyridin-3-yl)pyrido[3,4-d]pyrimidin-3(4H)-yl)propyl)methanesulfonamide] | – | – | – | < 10 |
| O=c1c2cc(-c3ccc(C(F)(F)F)cc3)nc(-c3cccnc3)c2ncn1C1CCNCC1 [Example 93, 3-(piperidin-4-yl)-8-(pyridin-3-yl)-6-(4-(trifluoromethyl)phenyl)pyrido[3,4-d]pyrimidin-4(3H)-one] | – | – | – | < 10 |

Other lines, results leading:

| IC50 (AhR [1]; [3]) [nM] | EC50 (AhR [2]; [4]) [nM] | EC50 (AhR [2]; [5]) [nM] | IC50 (AhR [1]; [6]) [nM] | Compound |
| --- | --- | --- | --- | --- |
| < 10 | > 30000 | > 10000 | – | CC(CO)n1cnc2c(-c3cccnc3)nc(-c3ccc(C(F)(F)F)cc3)cc2c1=O (stereo not shown) [Example 44, 3-(1-hydroxypropan-2-yl)-8-(pyridin-3-yl)-6-(4-(trifluoromethyl)phenyl)pyrido[3,4-d]pyrimidin-4(3H)-one] |
| < 10 | 9660 | – | – | CC(CO)n1cnc2c(-c3cccnc3)nc(-c3ccc(OC(F)(F)F)cc3)cc2c1=O (stereo not shown) [Example 49, 3-(1-hydroxypropan-2-yl)-8-(pyridin-3-yl)-6-(4-(trifluoromethoxy)phenyl)pyrido[3,4-d]pyrimidin-4(3H)-one] |
| < 10 | 2050 | – | – | CC(CO)n1cnc2c(-c3cccnc3)nc(-c3ccc(C(F)(F)F)nc3)cc2c1=O (stereo not shown) [Example 50, 3-(1-hydroxypropan-2-yl)-8-(pyridin-3-yl)-6-(6-(trifluoromethyl)pyridin-3-yl)pyrido[3,4-d]pyrimidin-4(3H)-one] |
| – | – | – | < 10 | O=c1c2cc(-c3ccc(C(F)(F)F)cc3)nc(-c3cccnc3)c2ncn1C[C@@H](O)CO [Example 81, (R)-3-(2,3-dihydroxypropyl)-8-(pyridin-3-yl)-6-(4-(trifluoromethyl)phenyl)pyrido[3,4-d]pyrimidin-4(3H)-one] |
| – | – | – | 100 to 1000 | CC(C(=O)O)n1cnc2c(-c3cccnc3)nc(-c3ccc(Cl)cc3)cc2c1=O (stereo not shown) [Example 83, 2-(6-(4-chlorophenyl)-4-oxo-8-(pyridin-3-yl)pyrido[3,4-d]pyrimidin-3(4H)-yl)propanoic acid, 2,2,2-trifluoroacetic acid salt] |
| – | – | – | 100 to 1000 | CC(C(=O)O)n1cnc2c(-c3cccnc3)nc(-c3ccc(C(F)(F)F)cc3)cc2c1=O (stereo not shown) [Example 84, 2-(4-oxo-8-(pyridin-3-yl)-6-(4-(trifluoromethyl)phenyl)pyrido[3,4-d]pyrimidin-3(4H)-yl)propanoic acid, 2,2,2-trifluoroacetic acid salt] |
| – | – | – | 10 to 100 | CC(CN)n1cnc2c(-c3cccnc3)nc(-c3ccc(C(F)(F)F)cc3)cc2c1=O (stereo not shown) [Example 85, 3-(1-aminopropan-2-yl)-8-(pyridin-3-yl)-6-(4-(trifluoromethyl)phenyl)pyrido[3,4-d]pyrimidin-4(3H)-one] |
| – | – | – | 10 to 100 | CC(=O)NCC(C)n1cnc2c(-c3cccnc3)nc(-c3ccc(C(F)(F)F)cc3)cc2c1=O (stereo not shown) [Example 86, N-(2-(4-oxo-8-(pyridin-3-yl)-6-(4-(trifluoromethyl)phenyl)pyrido[3,4-d]pyrimidin-3(4H)-yl)propyl)acetamide] |
| – | – | – | < 10 | CC(CN)n1cnc2c(-c3cccnc3)nc(-c3ccc(Cl)cc3)cc2c1=O (stereo not shown) [Example 87, 3-(1-aminopropan-2-yl)-6-(4-chlorophenyl)-8-(pyridin-3-yl)pyrido[3,4-d]pyrimidin-4(3H)-one] |
| – | – | – | 10 to 100 | CC(=O)NCC(C)n1cnc2c(-c3cccnc3)nc(-c3ccc(N4CCOCC4)cc3)cc2c1=O (stereo not shown) [Example 92, N-(2-(6-(4-morpholinophenyl)-4-oxo-8-(pyridin-3-yl)pyrido[3,4-d]pyrimidin-3(4H)-yl)propyl)acetamide] |
